{"source": "paper PMC9954146", "about": "“Anti-Leukaemic Activity of Rilpivirine Is Mediated by Aurora A Kinase Inhibition” (Cancers, 2023)", "key": {"[1]": {"test_system": "Aurora A kinase signalling pathway proteins in HL-60 cells", "test": "Western blotting, HL-60 time course and combination", "assay_type": "cell-based, human", "details": "10 µM, time course", "procedure": "Western blotting was performed following a method described previously. Briefly, 8 × 10^5 to 1 × 10^6 cells were seeded in petri dishes with 8 to 10 mL of culture medium and incubated overnight at 37 °C, 5% CO2. Then, the cells were treated with the test compounds and further incubated for the specified time point. Cells were then lysed using a lysis buffer containing protease inhibitors, and proteins were extracted by centrifugation. Protein concentrations were determined by using a Bio-Rad DC^TM protein assay kit (Bio-Rad Laboratories, Hercules, CA, USA). A total of 20–30 μg of proteins was loaded onto each well of 4–20% polyacrylamide gels for electrophoresis. Once electrophoresis was completed, gels were placed on pre-soaked polyvinylidene difluoride membranes and blocked with 10% skimmed milk in 1 × Tris-buffered saline and Tween (TBST). Then, the blots were incubated with primary antibodies, followed by washing with TBST for 4 × 20 min. After this, the blots were incubated with the appropriate horseradish peroxidase (HRP)-conjugated secondary antibody, followed by washing again with TBST for 4 × 20 min. The protein bands were then detected with either ECL prime (Amersham^TM ECL^TM prime Western blotting detection reagent) or ECL select (Amersham^TM ECL^TM select Western blotting detection reagent) depending on the abundance of the protein of interest. The blots were imaged using the Bio-Rad ChemiDoc^TM MP imaging system (Bio-Rad Laboratories, Hercules, CA, USA). All the primary and secondary antibodies used in this study were purchased from Cell Signaling Technology (Danvers, MA, USA)."}, "[2]": {"test_system": "caspase 3/7 in HL-60, NB4, K-562, and U-937 cells", "test": "Caspase-3/7 activity assay", "assay_type": "cell-based, human", "details": "10 µM, 48 h, all cell lines", "procedure": "Caspase-3/7 activity was measured after incubation of the cells with the test compounds for a specified time point using an Apo-ONE homogeneous caspase-3/7 kit (Promega, Madison, WI, USA) according to the manufacturer’s instructions. The signal was recorded by the EnVision multi-label plate reader (PerkinElmer, Beaconsfield, UK)."}, "PIM1 [3]": {"biological_target": "PIM1", "parameters": "method as in PMID 36297298", "details": "apparent Ki from IC50 and Km (ATP); cited from earlier work"}, "MV4-11 cells": {"test_system": "MV4-11 cells", "test": "Apoptosis, annexin V/PI double staining", "assay_type": "cell-based, human", "details": "10 or 20 μM, 48 h; FLT3-ITD mutation", "procedure": "(§1) The cellular apoptosis was detected using annexin-V/PI double staining by following a method described previously. Briefly, cells were added in 6-well plates containing 3 mL of medium each well at 8 × 10^4 cells/well and incubated at 37 °C, 5% CO2. After overnight incubation, the test compounds were added to the cells and again incubated for desired time points. Then, the cells were collected in FACS tubes, washed with PBS and incubated with annexin V and PI solution for 15 min in the dark at room temperature. The apoptotic cell death was measured within 1 h using the same instrument and data processing software described for cell cycle analysis."}, "K-562 cells": {"test_system": "K-562 cells", "test": "Apoptosis, annexin V/PI double staining", "assay_type": "cell-based, human", "details": "48 h", "procedure": "as §1"}, "HL-60 cells [4]": {"test_system": "HL-60 cells", "test": "Apoptosis, annexin V/PI double staining", "assay_type": "cell-based, human", "details": "48 h", "procedure": "as §1"}, "U-937 cells [5]": {"test_system": "U-937 cells", "test": "Apoptosis, annexin V/PI double staining", "assay_type": "cell-based, human", "details": "48 h", "procedure": "as §1"}, "NB4 cells [6]": {"test_system": "NB4 cells", "test": "Apoptosis, annexin V/PI double staining", "assay_type": "cell-based, human", "details": "48 h", "procedure": "as §1"}, "U-937 cells [7]": {"test_system": "U-937 cells", "test": "Resazurin cell viability assay", "assay_type": "cell-based", "details": "Homo sapiens", "procedure": "(§2) Cell viability was determined by a resazurin-based assay as described previously. Briefly, 5 × 10^3 cells/well were seeded into 96-well plates (Corning Inc., Corning, NY, USA) in 180 µL of RPMI 1640 medium and incubated overnight at 37 °C with 5% CO2. Next day, cells were treated with rilpivirine after serially diluted (1:2 dilution for final concentrations ranging from 0.625 µM to 40 µM) or DMSO (0.1%) for specified time periods (24, 48, or 72 h). At the end of the treatment period, 20 µL of resazurin (0.1 mg/mL in PBS) was added per well and incubated for further 4 h. Fluorescence intensities were recorded at 570 nm (excitation)/585 nm (emission) using an EnVision® multilabel plate reader (PerkinElmer, MA, USA). Drug concentrations required for cell viability reduction by 50% (GI50) compared with untreated (DMSO vehicle-treated only) control were determined by a non-linear regression model using GraphPad Prism software version 7.02 (La Jolla, CA, USA)."}, "NB4 cells [8]": {"test_system": "NB4 cells", "test": "Resazurin cell viability assay", "assay_type": "cell-based", "details": "Homo sapiens", "procedure": "as §2"}, "PIM1 [9]": {"test_system": "PIM1", "test": "Radioisotope-based kinase assay (Ki)", "assay_type": "biochemical", "details": "PIM1 vs Aurora A", "procedure": "Kinome-wide selectivity of rilpivirine was measured using the kinase screening and profiling service of Eurofins Scientific (Le bois l’Evêque 86600. Celle-Lévescault, France) and Ki values were determined using radioisotope-based assays by Reaction Biology Corporation (Malvern, PA, USA). The experimental details of Eurofin Scientific and Reaction Biology services for relevant assays are available at https://www.eurofinsdiscoveryservices.com/services/in-Vitro-assays/kinases/kinase-profiler (accessed on 7 July 2021) and https://www.reactionbiology.com (accessed on 7 July 2021), respectively. Ki values were estimated from the corresponding IC50 values using the Cheng–Prusoff equation [21] and the Km (ATP) of individual kinase was used for IC50 determination."}, "HL-60 cells [10]": {"test_system": "HL-60 cells", "test": "Colony formation assay", "assay_type": "cell-based, human", "details": "2.5, 5, or 10 µM, 10 days", "procedure": "(§3) For colony formation assay, 2 × 10^3 cells/well (in 6-well plates) were treated for 10 days with rilpivirine (2.5, 5, or 10 µM) or DMSO (0.1%) and incubated with 1.5 mL of cytokine-free H4230 medium ([…] Technologies, Inc., Vancouver, BC, Canada). After the incubation period, cells were stained with 300 µL/well of 3-(4,5-dimethylthiazol-2-yl)-2,5-diphenyltetrazolium bromide solution (0.5 mg/mL in PBS) (Sigma-Aldrich, St Louis, MO, USA) and incubated for 1 h. Colonies were then counted on an inverted microscope."}, "NB4 cells [11]": {"test_system": "NB4 cells", "test": "Colony formation assay", "assay_type": "cell-based, human", "details": "2.5, 5, or 10 µM, 10 days", "procedure": "as §3"}}, "data": [{"smiles": "Cc1cc(/C=C/C#N)cc(C)c1Nc1ccnc(Nc2ccc(C#N)cc2)n1", "note": "[rilpivirine, (E)-4-((4-((4-(2-cyanoethenyl)-2,6-dimethylphenyl)amino)pyrimidin-2-yl)amino)benzonitrile]", "values": [{"measurement": "time from which PARP cleavage was detected", "setting": "[1]", "result": "≥ 12", "unit": "h"}, {"measurement": "time of maximum induction of phospho-Histone H3 (Ser10)", "setting": "[1]", "result": 18, "unit": "h"}, {"measurement": "time until inhibition of Aurora-A autophosphorylation was evident", "setting": "[1]", "result": "≤ 6", "unit": "h"}, {"measurement": "caspase 3/7 activation vs untreated control", "setting": "[2]", "result": "significantly increased"}, {"measurement": "Ki", "setting": "PIM1 [3]", "result": 0.52, "unit": "µM"}, {"measurement": "apoptosis induction", "setting": "MV4-11 cells", "result": "induced significant apoptosis"}, {"measurement": "apoptotic cells (early and late apoptosis)", "setting": "K-562 cells; 5 µM", "result": 15.06, "unit": "%"}, {"measurement": "apoptotic cells (early and late apoptosis)", "setting": "K-562 cells; 10 µM", "result": 31.88, "unit": "%"}, {"measurement": "apoptotic cells (early and late apoptosis)", "setting": "K-562 cells; 20 µM", "result": 38.21, "unit": "%"}, {"measurement": "apoptotic cells (early and late apoptosis)", "setting": "HL-60 cells [4]; 5 µM", "result": 6.94, "unit": "%"}, {"measurement": "apoptotic cells (early and late apoptosis)", "setting": "HL-60 cells [4]; 10 µM", "result": 48.73, "unit": "%"}, {"measurement": "apoptotic cells (early and late apoptosis)", "setting": "HL-60 cells [4]; 20 µM", "result": 67.32, "unit": "%"}, {"measurement": "apoptotic cells (early and late apoptosis)", "setting": "U-937 cells [5]; 5 µM", "result": 20.68, "unit": "%"}, {"measurement": "apoptotic cells (early and late apoptosis)", "setting": "U-937 cells [5]; 10 µM", "result": 29.58, "unit": "%"}, {"measurement": "apoptotic cells (early and late apoptosis)", "setting": "U-937 cells [5]; 20 µM", "result": 39.47, "unit": "%"}, {"measurement": "apoptotic cells (early and late apoptosis)", "setting": "NB4 cells [6]; 5 µM", "result": 31.62, "unit": "%"}, {"measurement": "apoptotic cells (early and late apoptosis)", "setting": "NB4 cells [6]; 10 µM", "result": 87.04, "unit": "%"}, {"measurement": "apoptotic cells (early and late apoptosis)", "setting": "NB4 cells [6]; 20 µM", "result": 98.9, "unit": "%"}, {"measurement": "GI50", "setting": "U-937 cells [7]; U-937, 24 h", "result": "12.1 ± 2.97", "unit": "µM"}, {"measurement": "GI50", "setting": "U-937 cells [7]; U-937, 48 h", "result": "5.77 ± 1", "unit": "µM"}, {"measurement": "GI50", "setting": "U-937 cells [7]; U-937, 72 h", "result": "4.79 ± 0.17", "unit": "µM"}, {"measurement": "GI50", "setting": "NB4 cells [8]; NB-4, 24 h", "result": "8.94 ± 1.02", "unit": "µM"}, {"measurement": "GI50", "setting": "NB4 cells [8]; NB-4, 48 h", "result": "6.54 ± 0.83", "unit": "µM"}, {"measurement": "GI50", "setting": "NB4 cells [8]; NB-4, 72 h", "result": "4.6 ± 0.35", "unit": "µM"}, {"measurement": "potency against PIM1 relative to Aurora A kinase", "setting": "PIM1 [9]", "result": "four-and-a-half-fold less potent"}, {"measurement": "clonogenic growth", "setting": "HL-60 cells [10]", "result": "significantly decreased"}, {"measurement": "clonogenic growth", "setting": "NB4 cells [11]", "result": "significantly decreased"}]}]}
